Source: US9090599B2, “Heteroarylmethyl amides” (Hoffman-La Roche Inc., priority 2010, dated 2015)
Like-named read-outs stand apart in the source and are kept apart here.

What was measured:
human CB2 receptor = target: T1, human CB2 receptor (Homo sapiens, UniProt P34972); assay: CB2 receptor affinity, [3H]-CP-55,940 displacement, HEK cell membranes; format: binding; settings: 10 μM compound, radioligand [3H]-CP-55,940
T1 construct: expressed in transfected cells; host or cells: human embryonic kidney (HEK) cells, Semliki Forest Virus system, membrane preparations
T1 sequence (P34972 whole entry): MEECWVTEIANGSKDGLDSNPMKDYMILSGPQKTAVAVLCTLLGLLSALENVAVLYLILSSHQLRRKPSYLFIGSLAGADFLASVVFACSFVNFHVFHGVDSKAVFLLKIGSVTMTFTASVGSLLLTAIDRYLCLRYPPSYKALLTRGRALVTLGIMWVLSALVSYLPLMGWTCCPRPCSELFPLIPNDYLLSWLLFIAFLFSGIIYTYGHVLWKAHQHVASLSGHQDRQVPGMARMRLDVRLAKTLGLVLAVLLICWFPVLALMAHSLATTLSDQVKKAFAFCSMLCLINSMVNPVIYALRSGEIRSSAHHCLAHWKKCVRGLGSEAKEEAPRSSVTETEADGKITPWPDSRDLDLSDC
Protocol: (§1) The affinity of the compounds of the invention for cannabinoid CB2 receptors was determined using membrane preparations of human embryonic kidney (HEK) cells in which the human CB2 receptor is transiently transfected using a Semliki Forest Virus system in conjunction with [^3H]-CP-55,940 as radioligand. After incubation of freshly prepared cell membrane preparation with the [^3H]-ligand, with or without addition of compounds of the invention, separation of bound and free ligand was performed by filtration over glass fiber filters. Radioactivity on the filter was measured by scintillation counting.
(§2) The ability of the compounds to displace the radioligand [^3H]-CP-55,940 was measured at a concentration of 10 μM and values provided as [% inhibition @ 10 μM] both for the CB 1 and CB2 receptor assay, The lower % inhibition is, the lower the likelihood of side effects based on CB1 or CB2 receptor inhibition is.

human CB1 receptor = target: T2, human CB1 receptor (Homo sapiens, UniProt P21554); assay: CB1 receptor affinity, [3H]-CP-55,940 displacement, HEK cell membranes; format: binding; settings: read-out: CB1 receptor affinity [% inhibition @ 10 μM]
T2 construct: expressed in transfected cells; host or cells: human embryonic kidney (HEK) cells, Semliki Forest Virus system, membrane preparations
T2 sequence (P21554 whole entry): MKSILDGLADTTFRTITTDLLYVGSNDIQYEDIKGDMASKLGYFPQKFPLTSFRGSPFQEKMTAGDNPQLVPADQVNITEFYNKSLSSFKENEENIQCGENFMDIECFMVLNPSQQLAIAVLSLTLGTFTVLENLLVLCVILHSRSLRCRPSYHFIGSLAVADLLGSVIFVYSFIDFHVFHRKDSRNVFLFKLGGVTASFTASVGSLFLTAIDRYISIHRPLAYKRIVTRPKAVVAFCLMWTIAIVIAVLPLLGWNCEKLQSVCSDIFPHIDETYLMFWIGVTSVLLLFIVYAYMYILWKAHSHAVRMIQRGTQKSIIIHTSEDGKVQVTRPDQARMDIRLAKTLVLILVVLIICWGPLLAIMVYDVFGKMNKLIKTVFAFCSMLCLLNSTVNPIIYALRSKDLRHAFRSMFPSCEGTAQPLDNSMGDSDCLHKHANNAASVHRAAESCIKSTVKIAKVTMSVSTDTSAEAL
Protocol: as §1, with “cannabinoid” for “cannabinoid CB2”, “CB1” for “CB2”, “[3H]-CP-55,940” for “[^3H]-CP-55,940”
as §2

[1] = 10 μM compound, radioligand [3H]-CP-55,940

## O=C(NCc1ccn(CC2CC2)n1)c1cnc(OCC(F)(F)F)c(-c2ccc(Cl)cc2)c1 [Example 88, 5-(4-chlorophenyl)-N-((1-(cyclopropylmethyl)-1H-pyrazol-3-yl)methyl)-6-(2,2,2-trifluoroethoxy)nicotinamide]
Human CB2 receptor
  inhibition at 10 µM: 11%
Human CB1 receptor; [1]
  inhibition at 10 µM: 48%

## O=C(NCc1cc(C(F)(F)F)no1)c1ncc(OCC2CC2)c(-c2ccc(Cl)cc2)n1 [Example 62, 4-(4-chloro-phenyl)-5-cyclopropylmethoxy-pyrimidine-2-carboxylic acid (3-trifluoromethyl-isoxazol-5-ylmethyl)-amide]
Human CB2 receptor
  inhibition at 10 µM: 24%
Human CB1 receptor; [1]
  inhibition at 10 µM: 44%

## O=C(NCc1cc(C(F)(F)F)no1)c1cnc(OCC(F)(F)F)c(-c2ccc(Cl)cc2)c1 [Example 59, 5-(4-chloro-phenyl)-6-(2,2,2-trifluoro-ethoxy)-N-(3-trifluoromethyl-isoxazol-5-ylmethyl)-nicotinamide]
Human CB2 receptor
  inhibition at 10 µM: -2%
Human CB1 receptor
  inhibition at 10 µM: 49%

## O=C(NCc1nc(C(F)(F)F)no1)c1cnc(O[C@@H]2CCOC2)c(-c2ccc(Cl)cc2)c1 [Example 103, (R)-5-(4-chlorophenyl)-6-(tetrahydrofuran-3-yloxy)-N-((3-(trifluoromethyl)-1,2,4-oxadiazol-5-yl)methyl)nicotinamide]
Human CB2 receptor
  inhibition at 10 µM: 24%
Human CB1 receptor; [1]
  inhibition at 10 µM: 47%

## CC(C)c1nc(CNC(=O)c2ccc(OCC3CC3)c(-c3ccc(Cl)cc3)n2)cs1 [Example 52, 6-(4-chloro-phenyl)-5-cyclopropylmethoxy-pyridine-2-carboxylic acid (2-isopropyl-thiazol-4-ylmethyl)-amide]
Human CB2 receptor
  inhibition at 10 µM: 43%
Human CB1 receptor; [1]
  inhibition at 10 µM: 38%

## O=C(NCc1cc(C2CC2)on1)c1cnc(OCC2CC2)c(-c2ccc(Cl)cc2)c1 [Example 30, 5-(4-chloro-phenyl)-N-(5-cyclopropyl-isoxazol-3-ylmethyl)-6-cyclopropyl-methoxy-nicotinamide]
Human CB2 receptor
  inhibition at 10 µM: 38%
Human CB1 receptor; [1]
  inhibition at 10 µM: 48%

## O=C(NCc1nc(C(F)(F)F)no1)c1ncc(OCC2CC2)c(-c2ccc(Cl)cc2)n1 [Example 21, 4-(4-chloro-phenyl)-5-cyclopropylmethoxy-pyrimidine-2-carboxylic acid (3-trifluoromethyl-[1,2,4]oxadiazol-5-ylmethyl)-amide]
Human CB2 receptor
  inhibition at 10 µM: 35%
Human CB1 receptor; [1]
  inhibition at 10 µM: 44%

## C[C@H](Oc1ncc(C(=O)NCc2ccccn2)nc1-c1ccc(Cl)cc1)C(F)(F)F [Example 69, (S)-6-(4-chlorophenyl)-N-(pyridin-2-ylmethyl)-5-(1,1,1-trifluoropropan-2-yloxy)pyrazine-2-carboxamide]
Human CB2 receptor
  inhibition at 10 µM: 40%
Human CB1 receptor; [1]
  inhibition at 10 µM: 34%

## COCCOc1ncc(C(=O)NCc2nc(C(F)(F)F)no2)cc1-c1ccc(Cl)c(F)c1 [Example 97, 5-(4-chloro-3-fluorophenyl)-6-(2-methoxyethoxy)-N-((3-(trifluoromethyl)-1,2,4-oxadiazol-5-yl)methyl)nicotinamide]
Human CB2 receptor
  inhibition at 10 µM: 25%
Human CB1 receptor
  inhibition at 10 µM: 48%

## O=C(NCc1nc(C(F)(F)F)no1)c1cnc(OC[C@@H]2CCOC2)c(-c2ccc(Cl)cc2)c1 (stereo in doubt) [Example 105, 5-(4-Chloro-phenyl)-6-[(RS)-1-(tetrahydro-furan-3-yl)methoxy]-N-(3-trifluoromethyl-[1,2,4]oxadiazol-5-ylmethyl)-nicotinamide]
Human CB2 receptor
  inhibition at 10 µM: 17%
Human CB1 receptor; [1]
  inhibition at 10 µM: 47%

## Cc1ccc(-c2cc(C(=O)NCc3nc(C(F)(F)F)no3)ncc2OCC(F)(F)F)cc1C [Example 78, 4-(3,4-dimethylphenyl)-5-(2,2,2-trifluoroethoxy)-N-((3-(trifluoromethyl)-1,2,4-oxadiazol-5-yl)methyl)picolinamide]
Human CB2 receptor
  inhibition at 10 µM: 5%
Human CB1 receptor; [1]
  inhibition at 10 µM: 17%

## Cn1cc(Cl)c(CNC(=O)c2cnc(OCC(F)(F)F)c(-c3ccc(Cl)cc3)c2)n1 [Example 26, N-(4-Chloro-1-methyl-1H-pyrazol-3-ylmethyl)-5-(4-chloro-phenyl)-6-(2,2,2-trifluoro-ethoxy)-nicotinamide]
Human CB2 receptor
  inhibition at 10 µM: 22%
Human CB1 receptor; [1]
  inhibition at 10 µM: 40%

## COc1cc(CNC(=O)c2cc(-c3ccc(C)c(C)c3)c(OCC(F)(F)F)cn2)on1 [Example 75, 4-(3,4-dimethylphenyl)-N-((3-methoxyisoxazol-5-yl)methyl)-5-(2,2,2-trifluoroethoxy)picolinamide]
Human CB2 receptor
  inhibition at 10 µM: 34%
Human CB1 receptor; [1]
  inhibition at 10 µM: 19%

## CCc1ccc(-c2cc(C(=O)NCc3nc(C(F)(F)F)no3)cnc2OCC(F)(F)F)cc1 [Example 83, 5-(4-ethylphenyl)-6-(2,2,2-trifluoroethoxy)-N-((3-(trifluoromethyl)-1,2,4-oxadiazol-5-yl)methyl)nicotinamide]
Human CB2 receptor
  inhibition at 10 µM: -2%
Human CB1 receptor; [1]
  inhibition at 10 µM: 44%

## Cc1noc(CNC(=O)c2cnc(OCC(F)(F)F)c(-c3ccc(Cl)cc3)c2)n1 [Example 90, 5-(4-chlorophenyl)-N-((3-methyl-1,2,4-oxadiazol-5-yl)methyl)-6-(2,2,2-trifluoroethoxy)nicotinamide]
Human CB2 receptor
  inhibition at 10 µM: 14%
Human CB1 receptor; [1]
  inhibition at 10 µM: 50%

## O=C(NCc1nc(C(F)(F)F)no1)c1cc(-c2ccc(Cl)cc2)c(OCC2CC2)nn1 [Example 20, 5-(4-chloro-phenyl)-6-cyclopropylmethoxy-pyridazine-3-carboxylic acid (3-trifluoromethyl-[1,2,4]oxadiazol-5-ylmethyl)-amide]
Human CB2 receptor
  inhibition at 10 µM: 34%
Human CB1 receptor; [1]
  inhibition at 10 µM: 33%

## CCc1nc(CNC(=O)c2cnc(OCC3CC3)c(-c3ccc(Cl)cc3)c2)cs1 [Example 10, 5-(4-chloro-phenyl)-6-cyclopropylmethoxy-N-(2-ethyl-thiazol-4-ylmethyl)-nicotinamide]
Human CB2 receptor
  inhibition at 10 µM: 28%
Human CB1 receptor; [1]
  inhibition at 10 µM: 28%

## O=C(NCc1cc(C(F)(F)F)on1)c1cnc(OCC2CC2)c(-c2ccc(Cl)cc2)c1 [Example 66, 5-(4-chloro-phenyl)-6-cyclopropylmethoxy-N-(5-trifluoromethyl-isoxazol-3-ylmethyl)-nicotinamide]
Human CB2 receptor
  inhibition at 10 µM: 18%
Human CB1 receptor; [1]
  inhibition at 10 µM: 49%

## O=C(NCc1nc(C(F)(F)F)no1)c1cnc(OCC2CC2)c(-c2ccc(F)c(F)c2)c1 [Example 95, 6-(cyclopropylmethoxy)-5-(3,4-difluorophenyl)-N-((3-(trifluoromethyl)-1,2,4-oxadiazol-5-yl)methyl)nicotinamide]
Human CB2 receptor
  inhibition at 10 µM: 21%
Human CB1 receptor; [1]
  inhibition at 10 µM: 39%

## O=C(NCc1nc(C(F)(F)F)no1)c1cnc(OCC(F)(F)F)c(-c2ccc3c(c2)CCC3)c1 [Example 85, 5-(2,3-dihydro-1H-inden-5-yl)-6-(2,2,2-trifluoroethoxy)-N-((3-(trifluoromethyl)-1,2,4-oxadiazol-5-yl)methyl)nicotinamide]
Human CB2 receptor
  inhibition at 10 µM: 8%
Human CB1 receptor; [1]
  inhibition at 10 µM: 7%

## CC(C)c1nc(CNC(=O)c2cnc(OCC3CC3)c(-c3ccc(Cl)cc3)c2)no1 [Example 51]
Human CB2 receptor
  inhibition at 10 µM: 2%
Human CB1 receptor; [1]
  inhibition at 10 µM: 47%

## COc1cc(CNC(=O)c2cnc(OCC(F)(F)F)c(-c3ccc(Cl)c(F)c3)c2)on1 [Example 86, 5-(4-chloro-3-fluorophenyl)-N-((3-methoxyisoxazol-5-yl)methyl)-6-(2,2,2-trifluoroethoxy)nicotinamide]
Human CB2 receptor
  inhibition at 10 µM: 9%
Human CB1 receptor; [1]
  inhibition at 10 µM: 37%

## CC(C)c1cc(CNC(=O)c2ccc(OCC3CC3)c(-c3ccc(Cl)cc3)n2)no1 [Example 55, 6-(4-chloro-phenyl)-5-cyclopropylmethoxy-pyridine-2-carboxylic acid (5-isopropyl-isoxazol-3-ylmethyl)-amide]
Human CB2 receptor
  inhibition at 10 µM: 33%
Human CB1 receptor; [1]
  inhibition at 10 µM: 44%

## CC(C)c1cc(CNC(=O)c2cc(-c3ccc(Cl)cc3)c(OCC(F)(F)F)nn2)on1 [Example 43, 5-(4-chloro-phenyl)-6-(2,2,2-trifluoro-ethoxy)-pyridazine-3-carboxylic acid (3-isopropyl-isoxazol-5-ylmethyl)-amide]
Human CB2 receptor
  inhibition at 10 µM: 14%
Human CB1 receptor; [1]
  inhibition at 10 µM: 37%

## O=C(NCc1nc(C(F)(F)F)no1)c1cnc(OC2CCC2)c(-c2ccc(Cl)c(F)c2)c1 [Example 93, 5-(4-chloro-3-fluorophenyl)-6-cyclobutoxy-N-((3-(trifluoromethyl)-1,2,4-oxadiazol-5-yl)methyl)nicotinamide]
Human CB2 receptor
  inhibition at 10 µM: 7%
Human CB1 receptor; [1]
  inhibition at 10 µM: 18%

## O=C(NCc1nc(C(F)(F)F)no1)c1cnc(OCC(F)(F)F)c(-c2ccc(Cl)cc2F)c1 [Example 84, 5-(4-chloro-2-fluorophenyl)-6-(2,2,2-trifluoroethoxy)-N-((3-(trifluoromethyl)-1,2,4-oxadiazol-5-yl)methyl)nicotinamide]
Human CB2 receptor
  inhibition at 10 µM: 21%
Human CB1 receptor; [1]
  inhibition at 10 µM: 49%

## CC(C)(C)c1nc(CNC(=O)c2ccc(OCC3CC3)c(-c3ccc(Cl)cc3)n2)cs1 [Example 63, 6-(4-chloro-phenyl)-5-cyclopropylmethoxy-pyridine-2-carboxylic acid (2-tert-butyl-thiazol-4-ylmethyl)-amide]
Human CB2 receptor
  inhibition at 10 µM: 38%
Human CB1 receptor; [1]
  inhibition at 10 µM: 36%

## CC(C)c1cc(CNC(=O)c2cnc(OCC3CC3)c(-c3ccc(Cl)cc3)c2)no1 [Example 32, 5-(4-chlorophenyl)-6-(cyclopropylmethoxy)-N-((5-isopropylisoxazol-3-yl)methyl)nicotinamide]
Human CB2 receptor
  inhibition at 10 µM: 26%
Human CB1 receptor; [1]
  inhibition at 10 µM: 47%
